Laboratory results taken from patent US20220249525A1, “Fatty Acid Compounds for Prevention and Treatment of Neurodegenerative Disorders” (T OMEGA AS, priority 2019, published 2022).
Where a name gives a salt, the structure may show the parent alone.

Legend:
[1] = tested on: MOLM-13 human acute leukemia cells; assay: WST-1 viability of MOLM-13 cells; type: cell-based; details: for Abs450 nm (WST-1 viability): complexed to BSA
Procedure: MOLM-13 suspension cells were diluted and added to 96-well plates (15.000 cells/well).
The modified fatty acids TTA, tr-TTA, TDG (TGH) and tr-TDG (tr-TGH) were complexed to bovine serum albumin (BSA), and 10-fold dilutions of the fatty acids or BSA control were added to the wells in duplicate. Two plates were run in parallel, and WST-1 was added to the cells after 48 (plate 1) and 72 hours (plate 2). Absorbance at 450 nm measured to assess viability of the cells.

SH-SY5Y cells [2] = assay: WST-1 cell viability assay in SH-SY5Y cells; type: cell-based; details: 4 days
Procedure: (§1) The fatty acids (FAs) TTA, tr-TTA, N-TTA, tr-N-TTA and (PA) were complexed with FBS following the same procedure, differing only in final stock concentration, due to variation in solubility. Approximately 0.07 g of FA was weighed in a 10 ml sterile serum tube (BD Vacutainer®, catalog no. 368430) and dissolved in sterile filtrated 0.1 M sodium hydroxide (NaOH) of a volume giving 25 mM FA, controls without FA were made, containing only NaOH and FBS. A syringe (Sterican®, catalog no. 4657577) was pierced through the rubber cap of the serum tube, and the tube was placed in an 80° C. water bath until the FAs were dissolved. Each FA-solution was then diluted in inactivated FBS to stock concentration 1 mM (N-TTA, tr-N-TTA), and 2 mM by adding the FA to a volume of 100% FBS after heating the FBS to 45° C. in a water bath. The transfer of FA to FBS had to be executed controlled and swiftly to avoid the formation of precipitates. If any precipitates in the solution were visible, the FA and a new volume of FBS were reheated, and the procedure performed again. Following successful complexation, the stock solutions were stored at −20° C. in 1 ml aliquots (CryoPure tube, Sarstedt AG & Co, Nümbrecht, Germany).
(§2) The WST-1 cell proliferation assay was performed using the kit from Roche (table 4.2.) and its accompanying procedure (version 16, February 2011) (134). The number of cells seeded to each well in the 96-well plates (Corning Inc., catalog no. 353072) varied depending on the treatment time and cell type (table 3.).
(§3) Cell suspension and medium were then transferred to each well in a volume of 100 μl in total. Subsequently, the plates were incubated for 24 hours to make the cells settle. The next day, 100 μl with FA complexed with FBS or diluted in DMSO was added to row A or B in the 96-well plate to give a defined concentration. The solution was then mixed with a pipette, and 100 μl of the medium with FA was transferred to the next well in the same column, mixed by pipetting up and down at least five times before 100 μl was transferred again to the next well in the column. This procedure was repeated until the second last, or last well in each column was reached, making a series of two-fold dilution of the FAs in the cell medium. Two parallels were performed for every treatment per run. After the addition of FAs, the plates were incubated for 24-96 hours depending on the length of the treatment.
Following the FA-treatment, the cells were studied under a microscope to ensure that visual observations matched the measured absorbance and cell activity in the assay. Subsequently, 10 μl WST-1 reagent was added to each well, and the plates were incubated for 3 hours. Due to high activity in the HuH-7 cell line, the WST-1 reagent was diluted 1:1 with PBS. Before the measurement of absorbance, the plates were placed on a shaker for 1 minute ensuring thoroughly mixing of the wells. The plates were then put straight into the spectrophotometer (SpectraMax Plus 384 Microplate Reader, Molecular Devices Corporation, San Jose, Calif., USA) to perform the measurements. […] The absorbance of the samples was measured at 450 nm, and the reference wavelength was set to 650 nm. For each well, the measured absorption at 650 nm was subtracted from the absorption at 450 nm. The measured absorbance for the treated cells was then compared to the controls (blank) containing only cells and growth medium.

HuH-7 cells [3] = assay: WST-1 cell viability assay in HuH-7 cells; type: cell-based; details: 2 days
Procedure: as §1, §2, §3
Following the FA-treatment, the cells were studied under a microscope to ensure that visual observations matched the measured absorbance and cell activity in the assay. Subsequently, 10 μl WST-1 reagent was added to each well, and the plates were incubated for 3 hours. Due to high activity in the HuH-7 cell line, the WST-1 reagent was diluted 1:1 with PBS. Before the measurement of absorbance, the plates were placed on a shaker for 1 minute ensuring thoroughly mixing of the wells. The plates were then put straight into the spectrophotometer (SpectraMax Plus 384 Microplate Reader, Molecular Devices Corporation, San Jose, Calif., USA) to perform the measurements. The accompanying software was used (SoftMax Pro, Molecular Devices Corporation, San Jose, Calif., USA) to obtain the results. The absorbance of the samples was measured at 450 nm, and the reference wavelength was set to 650 nm. For each well, the measured absorption at 650 nm was subtracted from the absorption at 450 nm. The measured absorbance for the treated cells was then compared to the controls (blank) containing only cells and growth medium.

[4] = 4 week high-fat diet study, body weight, adipose tissue, plasma glucose and cholesterol; type: in vivo, C57BL/6 mice; details: mice, N-TTA 750 mg/kg or triple-N-TTA 350 mg/kg body weight, 4 weeks
Procedure: This animal study was conducted according to the Guidelines for the Care and Use of Experimental Animals, and the protocol was approved by the Norwegian Food Authorities. 7 to 8-weeks old male C57BL/6 mice, were obtained from Janvier Labs. After one week of acclimatization, they were divided into 3 groups of 7 animals. One group was fed a control high-fat (25 w/v) diet while the two remaining groups were fed a high-fat diet supplemented with either N-TTA (750 mg/kg body weight) or triple-N-TTA (350 mg/kg body weight). After 4 weeks of feeding, the mice were anaesthetized with Isofluorane (Forane, Abbot Laboratories Ltd, Illinois, USA) inhalation under fasting conditions, and blood and liver samples were collected. […]
Glucose and lipids in plasma was measured on the Hitachi 917 system (Roche Diagnostics, GmbH, Mannheim, Germany) using kits from Roche Diagnostics or DiaSys.

SH-SY5Y cells [5] = assay: Gene expression (qPCR) in SH-SY5Y cells treated with fatty acids; type: cell-based
Procedure: (§4) Cells from both cell lines were obtained and counted as previously mentioned. After cell counting, the cells were seeded to 6-well plates (Corning Inc., catalog no. 353046) with a density dependent on total treatment time and cell line. The cells were seeded in 3-4 ml medium and placed in the incubator for approximately 24 hours for the cells to settle. Following the 24 hours, the FAs were thawed in room temperature, the cell medium was aspirated off, and a new, exact volume was added to each well, depending on the final concentration of FA or control. Before the addition of FAs, the FA-solutions were mixed by pipetting up and down several times. The FAs were then added with an exact volume to the wells giving a total volume of 3 ml or 4 ml depending on treatment time, yielding the target concentration of FA in well. After the addition of FA to one well, the solution was mixed by carefully rotating the 6-well plate. The same procedure was followed for all the wells, differing only in FA or control added, and the ratio of medium and FA depending on treatment dose. During cell treatment, the plates were incubated under the same conditions as previously mentioned. PBS was placed between the wells to reduce liquid-loss due to evaporation. After treatment and incubation for 24-96 hours, the procedure of RNA purification was followed.
(§5) Purification of total RNA from treated HuH-7- and SH-SY5Y cells was done following the protocol “Purification of Total RNA from Animal Cells using Spin Technology” described in the RNeasy Mini Handbook (fourth edition, June 2012) with some modifications. The RNeasy Mini Kit was used.
(§6) Frozen RNA samples were thawed on ice or used directly after the RNA purification protocols. All samples from the cell lines were diluted with nuclease-free water to 50 ng/μl, and all samples from brain tissue were diluted to 200 ng/μl prior to cDNA synthesis. UHRR and UMRR were initially at 50 ng/μ1 (table 4.3.). The reactants (table 4.6.) used in the RT-mix were thawed on ice and mixed following the protocol “High Capacity cDNA Reverse Transcription Kits” (Applied Biosystems, June 2010) (153). From the master mix containing the total volume of the mixed reactants, 10 μl was added to each sample tube placed on ice already containing 10 μl of the diluted RNA. The samples with a total volume of 20 μl were mixed by pipetting up and down several times. In addition, samples without reverse transcriptase (−RT) were made, using nuclease-free water to replace the RT volume. The tubes were placed on ice until they were loaded to the GeneAmp* PCR system 2700 (Applied Biosystems, Foster City, Calif., USA) and the program described in table 4.7. was used. After the procedure, all samples were diluted to 10 ng/μl by the addition of nuclease-free water and placed for storage at 4° C. until further use.
The mix for the samples (and standard curves) was made using TaqMan Gene Expression Master Mix (table 4.8.), probes specific for the genes in question, and nuclease-free water. −RT and NTC samples were always used in the experiments. […] The prepared samples were placed in the PCR cycler (ABI PRISM 7900HT Sequence Detection System, Applied Biosystems) for quantification, using the 9600 Emulation Thermal Cycler Protocol (table 4.9.) in the software SDS 2.3 (Applied Biosystems, Foster City, Calif., USA).
(§7) When performing the qPCR reactions, all samples were analyzed in triplicates, and the mean value was used in further analysis. […]

HuH-7 cells [6] = assay: Gene expression (qPCR) in HuH-7 cells treated with fatty acids; type: cell-based
Procedure: as §4, §5, §6
The mix for the samples (and standard curves) was made using TaqMan Gene Expression Master Mix (table 4.8.), probes specific for the genes in question, and nuclease-free water. −RT and NTC samples were always used in the experiments. The master mix for each gene was made according to table 4.8. and added to tubes together with the cDNA. The tubes were vortexed and centrifuged briefly before the samples were added to a 384-well plate (Sarstedt AG & CO, catalog no. 72.1984.202) with the use of a pipette. For every sample, three parallels of 9 μl were used. After the addition of all the samples to the plate, a plastic cover (Sarsted AG & CO, catalog no. 95.1994) was used to seal the plate before centrifuging it for 2 minutes at 700 g. The prepared samples were placed in the PCR cycler (ABI PRISM 7900HT Sequence Detection System, Applied Biosystems) for quantification, using the 9600 Emulation Thermal Cycler Protocol (table 4.9.) in the software SDS 2.3 (Applied Biosystems, Foster City, Calif., USA).
as §7

[7] = 125 μM complexed with FBS, 24 hours
[8] = 25 μM dissolved in DMSO, 4 days

Structure (SMILES): CC#CCCCCCCCCCCCNCC(=O)O [tr-N-TTA, Tetradec-12-yn-1-ylglycine hydrochloride]
- Abs450 nm (WST-1 viability) ([1]; 48 hours, 0.0625 mM): 0.4964
- Abs450 nm (WST-1 viability) ([1]; 48 hours, 0.125 mM): 0.1452
- Abs450 nm (WST-1 viability) ([1]; 48 hours, 0.25 mM): 0.1679
- Abs450 nm (WST-1 viability) ([1]; 48 hours, 0.5 mM): 0.2177
- Abs450 nm (WST-1 viability) ([1]; 48 hours, 1 mM): 0.2833
- Abs450 nm (WST-1 viability) ([1]; 48 hours, 2 mM): 0.5009
- Abs450 nm (WST-1 viability) ([1]; 72 hours, 0.03125 mM): 0.3769
- Abs450 nm (WST-1 viability) ([1]; 72 hours, 0.0625 mM): 0.4452
- Abs450 nm (WST-1 viability) ([1]; 72 hours, 0.125 mM): 0.13
- Abs450 nm (WST-1 viability) ([1]; 72 hours, 0.25 mM): 0.1384
- Abs450 nm (WST-1 viability) ([1]; 72 hours, 0.5 mM): 0.1964
- Abs450 nm (WST-1 viability) ([1]; 72 hours, 1 mM): 0.366
- Abs450 nm (WST-1 viability) ([1]; 72 hours, 2 mM): 0.426
- toxicity to leukemic cells ([1]; MOLM-13, compared with TTA and tr-TTA): toxic to leukemic cells at a lower concentration than TTA and tr-TTA
- WST-1 activity compared to untreated cells (SH-SY5Y cells [2]; 500 μM): 84%
- WST-1 activity compared to untreated cells (SH-SY5Y cells [2]; all concentrations except 500 μM): ~100%
- WST-1 activity compared to untreated cells (HuH-7 cells [3]; 16 μM, complexed with FBS): 109%
- WST-1 activity compared to no treatment (HuH-7 cells [3]; 500 μM): ~90%
- WST-1 activity compared to untreated cells (HuH-7 cells [3]; all concentrations): around 100%
- LDL cholesterol (plasma) [4]: reduced
- body weight gain vs high-fat control diet [4]: significantly lower
- cholesterol esters (plasma) [4]: reduced
- epididymal white adipose tissue depot [4]: reduced in size
- free cholesterol (plasma) [4]: reduced
- perirenal white adipose tissue depot [4]: reduced in size
- total cholesterol (plasma) [4]: reduced
- blood glucose vs high-fat control diet ([4]; fasting): significantly lower

Structure (SMILES): CCCCCCCCCCCCCCCC(=O)O [PA]
- WST-1 activity (SH-SY5Y cells [2]; 500 μM): the same as the control
- WST-1 activity (SH-SY5Y cells [2]; concentrations up to 250 μM): stimulated activity
- relative gene expression of CPT-2 vs control (SH-SY5Y cells [5]; [7]): No change
- relative gene expression of CYCS vs control (SH-SY5Y cells [5]; [7]): No change
- relative gene expression of TFAM vs control (SH-SY5Y cells [5]; [7]): No change
- relative gene expression of UCP3 vs control (SH-SY5Y cells [5]; [7]): No change
- CYCS gene expression vs FBS-control (SH-SY5Y cells [5]; additional treatments, 4 days, reference 18 S): small decrease
- relative expression of CPT-2 compared to control (HuH-7 cells [6]; [8]): 0.65
- relative expression of UCP3 compared to untreated cells (HuH-7 cells [6]; [8]): approximately 0.5
- increase in CPT-2 expression relative to control (HuH-7 cells [6]; 125 μM complexed with FBS, 1 day): 1.5 fold
- increase in CPT-2 expression relative to control (HuH-7 cells [6]; 125 μM complexed with FBS, 2 days): did not result in increased expression
- increase in CPT-2 expression relative to control (HuH-7 cells [6]; 125 μM complexed with FBS, 4 days): did not result in increased expression
- increase in relative expression of UCP3 (HuH-7 cells [6]; 125 μM complexed with FBS, all treatment periods (1, 2, 4 days)): did not induce any changes
- WST-1 activity compared to untreated cells (HuH-7 cells [3]; 62.5 μM, complexed with FBS): ~150%
